Reference: ChEMBL document CHEMBL5136977, “Discovery of 1-(5-(1H-benzo[d]imidazole-2-yl)-2,4-dimethyl-1H-pyrrol-3-yl)ethan-1-one derivatives as novel and potent bromodomain and extra-terminal (BET) inhibitors with anticancer efficacy” (Eur J Med Chem, 2022)

How the values were obtained:
[1] = Metabolic stability in human liver microsomes assessed as intrinsic clearance incubated for 1 hr by LC-MS/MS analysis; format: ADME, Microsome; conditions: read-out: CLH
[2] = AUC (0 to infinity) in Sprague-Dawley rat at 1 mg/kg, iv by LC-MS/MS analysis; format: ADME, organism-based; design: time infinity, dose 1 mg/kg, route iv; conditions: in vivo
[3] = Volume of distribution in Sprague-Dawley rat at 1 mg/kg, iv by LC-MS/MS analysis; format: ADME, organism-based; conditions: in vivo
NCI-H522 = test: Antiproliferative activity against human NCI-H522 cells assessed as cell growth inhibition measured after 72 hrs by CellTiter-Glo assay; format: functional
HCT-15 = test: Antiproliferative activity against human HCT-15 cells assessed as cell growth inhibition measured after 72 hrs by CellTiter-Glo assay; format: functional
SNB-75 = test: Antiproliferative activity against human SNB-75 cells assessed as cell growth inhibition measured after 72 hrs by CellTiter-Glo assay; format: functional
MV4-11 [4] = test: Induction of cell cycle arrest in human MV4-11 cells assessed as accumulation of cells at G2/M phase at 100 nM incubated for 48 hrs by propidium iodide staining based flow cytometric analysis (reference value: 8%); format: functional
MV4-11 [5] = test: Induction of cell cycle arrest in human MV4-11 cells assessed as accumulation of cells at S phase at 200 nM incubated for 48 hrs by propidium iodide staining based flow cytometric analysis (reference value: 26.29%); format: functional
[6] = Induction of cell apoptosis in human MV4-11 cells assessed as late apoptotic cells at 500 nM incubated for 48 hrs by Annexin V-FITC/Propidium iodide staining based flow cytometry analysis (reference value: 1.99%); format: functional
MV4-11 [7] = test: Antitumor activity against human MV4-11 cells xenografted BALB/c nude mouse model assessed as tumor growth inhibition at 20 mg/kg, po QD administered for 28 consecutive days; format: functional; conditions: MV4-11, 672 h, time 28 day, read-out: TGI
[8] = Toxicity in BALB/c nude mouse xenografted with human MV4-11 cells assessed as effect on body weight at 20 to 80 mg/kg, po QD administered for 28 consecutive days; format: organism-based; conditions: in vivo, 672 h, dose 20-80 mg/kg, time 28 day

Q: Which microsomal CLint [1] does the source give for `CC(=O)c1c(C)[nH]c(-c2nc3cc(N4CCN(C)CC4)ccc3[nH]2)c1-c1ccccc1` here?
A: The microsomal CLint was 7.03 µL/min/mg.

Q: And the AUC(0-inf) [2]?
A: The AUC(0-inf) was 725 ng·h/mL.

Q: What about the Vd [3] of the same compound?
A: Its Vd is 3.3 L/kg.

Q: And the GI50 (NCI-H522)?
A: Its GI50 is 258 nM.

Q: And the GI50 (HCT-15)?
A: The GI50 was 261 nM.

Q: And the GI50 (SNB-75)?
A: The GI50 was 41.6 nM.

Q: What about the Activity (MV4-11 [4]) of the same compound?
A: Its Activity is 6.33%.

Q: What about the Activity (MV4-11 [5]) of the same compound?
A: Its Activity is 9.68%.

Q: And the Activity [6]?
A: The Activity was 76.4%.

Q: And the inhibition in vivo at 20 mg/kg (MV4-11 [7])?
A: The inhibition in vivo at 20 mg/kg was 48.7%.

Q: And the Activity [8]?
A: The Activity was “Non-Toxic”.
